# Where two headings read alike, the source gives them in different places.
# Experiments:
# [1] = test system: HT-29 cells; test: Kinase inhibitor pretreatment, VASP phosphorylation after Pf-2545920 stimulation; assay type: cell-based, human
# Description: (§1) C. […] They are assigned to Pf-2545920 because the x-axis label names it as the compound given in dose-response.
# (§2) Cell lysates were separated by SDS-PAGE using 12% polyacrylamide gel, 7.5% for PDE10 protein analysis, followed by electrophoretic transfer to nitrocellulose membranes. The membranes were then blocked at room temperature on an orbital shaker for 1 hour in a solution of 5% non-fat dry milk in TBS with 0.1% Tween 20 (TBS-T). Membranes were then incubated overnight at 4 degrees on an orbital shaker with appropriate primary antibodies. Membranes were then washed three times with TBS-T before addition of appropriate secondary antibodies, and incubated at room temperature for 1 hour on an orbital shaker. Membranes were washed and developed using SuperSignal West Enhanced Chemiluminescence Reagent (Pierce).
# [2] = test system: HT-29 cells; test: PARP cleavage by Western blot; assay type: cell-based, human; conditions: HT-29, 0.1 μM KT 5823 for 30 minutes before Pf-2545920 at 5 μM and 10 μM for 6 hours
# Description: as §2
# [3] = test system: HT-29 cells; test: Growth inhibition with or without H89 pretreatment (CellTiter-Glo); assay type: cell-based, human; conditions: for IC50: Homo sapiens
# Description: as §1
# (§3) Growth Assays were performed by seeding 5,000 cells per well in a 96-well microtiter plate, or 2,500 cells per well in half-area 96-well microtiter plates. Cells were allowed to settle onto the bottom of the plate before being dosed with compounds in dose-response for 72 hours at 37°C in a humidified incubator containing 5% CO2. After incubation, growth inhibitory activity was assayed using the Cell Titer Glo Assay (Promega) according to manufacturer's recommendations.
# [4] = test system: colon tumor cell; test: Colon tumor cell growth, rolipram; assay type: cell-based; conditions: concentrations up to 100 μM, data not shown
# [5] = target: PDE1A (Homo sapiens, UniProt P54750); test: Phosphodiesterase isozyme specificity, PDE1A; assay type: biochemical; conditions: @ 10 μM
# [6] = target: PDE2A (Homo sapiens, UniProt O00408); test: Phosphodiesterase isozyme specificity, PDE2A; assay type: biochemical
# [7] = target: PDE3A (Homo sapiens, UniProt Q14432); test: Phosphodiesterase isozyme specificity, PDE3A; assay type: biochemical
# [8] = target: PDE3B (Homo sapiens, UniProt Q13370); test: Phosphodiesterase isozyme specificity, PDE3B; assay type: biochemical; conditions: @ 10 μM
# [9] = target: PDE4B2 (Homo sapiens, UniProt Q07343); test: Phosphodiesterase isozyme specificity, PDE4B2; assay type: biochemical; conditions: PDE4B2, cAMP substrate
# [10] = target: PDE5 (Homo sapiens, UniProt O76074); test: Phosphodiesterase isozyme specificity, PDE5; assay type: biochemical; conditions: PDE5, cGMP substrate
# [11] = target: PDE9A (Homo sapiens, UniProt O76083); test: Phosphodiesterase isozyme specificity, PDE9A; assay type: biochemical; conditions: cGMP substrate, @ 10 μM
# [12] = target: PDE11A (Homo sapiens, UniProt Q9HCR9); test: Phosphodiesterase isozyme specificity, PDE11A; assay type: biochemical; conditions: @ 10 μM
# [13] = test system: HCT116; test: Growth inhibition assay (Cell Titer Glo), HCT116; assay type: cell-based; conditions: Homo sapiens, HCT-116; HCT116, 72 hours
# Description: as §3
# [14] = test system: COLO-205; test: Growth inhibition assay (Cell Titer Glo), COLO-205; assay type: cell-based; conditions: Homo sapiens; COLO-205, 72 hours
# Description: as §3
# [15] = test system: HCC-2998; test: Growth inhibition assay (Cell Titer Glo), HCC-2998; assay type: cell-based; conditions: Homo sapiens; HCC-2998, 72 hours
# Description: as §3
# [16] = test system: HCT-15; test: Growth inhibition assay (Cell Titer Glo), HCT-15; assay type: cell-based; conditions: Homo sapiens; HCT-15, 72 hours
# Description: as §3
# [17] = test system: KM12; test: Growth inhibition assay (Cell Titer Glo), KM12; assay type: cell-based; conditions: Homo sapiens; KM12, 72 hours
# Description: as §3
# [18] = test system: SW620; test: Growth inhibition assay (Cell Titer Glo), SW620; assay type: cell-based; conditions: Homo sapiens, SW-620; SW620, 72 hours
# Description: as §3
# [19] = test system: panel of nine human colon tumor cell lines; test: Growth inhibition, panel of nine human colon tumor cell lines; assay type: cell-based; conditions: 72 hours, read-out: growth inhibition IC50 values, range over all lines
# Description: as §3
# [20] = test system: HT-29 vector control cells; test: Growth inhibition, HT-29 vector control cells; assay type: cell-based; conditions: Homo sapiens
# Description: as §3
# (§4) HT-29 PDE10 knockdown cells were generated and described previously. Briefly, lentiviral particles targeting PDE10 were produced in HEK293T cells according to the manufacturer's instruction. HT-29 cells were transduced by the lentivirus particles followed by puromycin selection (5μg/ml) for 2 weeks. Individual cell colonies stably expressing shRNA were selected and isolated in the presence of puromycin, and evaluated by western blotting previously.
# [21] = test system: HT-29 PDE10 knockdown cells; test: Growth inhibition, HT-29 PDE10 knockdown cells; assay type: cell-based; conditions: Homo sapiens; HT-29 PDE10 knockdown (shRNA) cells
# Description: as §3, §4
# [22] = test system: HT-29 colon tumor cells; test: Fluorescent cytotoxicity assay (CellTox Green); assay type: cell-based, human; conditions: dose response over time
# Description: Cells were plated in 96-well microtiter plates at a […] of 5,000 cells per well and treated with compound or vehicle control at the doses and times indicated. Cytotoxicity was measured using CellTox Green Cytotoxicity Assay (Promega) according to the manufacturer's recommendations.
# [23] = test system: HT-29 cells; test: Apoptosis, Annexin V-FITC + PI staining by FACS; assay type: cell-based, human; conditions: 72 hours; for cells staining positive for Annexin V: lower right quadrant; for cells staining positive for both Annexin V and PI: upper right quadrant
# Description: Apoptosis was assayed using the Annexin V-FITC + PI apoptosis detection kit from Leinco Technologies according to the manufacturer's recommendations. HT-29 cells were incubated with compounds for 72 hrs at 37°C before being analyzed for apoptosis by FACS.
# [24] = test system: HCT-116 colon tumor cells; test: VASP/CREB phosphorylation by Western blot (PKG and PKA activation); assay type: cell-based, human
# Description: as §2
# [25] = test system: HCT-116; test: cGMP EIA assay, intracellular cGMP; assay type: cell-based, human; conditions: HCT-116, concentration-dependent
# Description: Total levels of cGMP were measured using a competitive ELISA assay (Cayman Chemical) according to the manufacturer's recommendations. A standard curve is generated using samples of known cGMP concentrations provided with the assay and plotted using linear regression to extrapolate samples.
# [26] = test system: HCT-116; test: Intracellular cAMP levels; assay type: cell-based, human; conditions: HCT-116, concentration-dependent
# [27] = test system: SW-480 colon tumor cells; test: β-catenin nuclear translocation under Wnt3a stimulation (confocal immunofluorescence); assay type: cell-based, human; conditions: pre-incubation 30 minutes, Wnt3a conditioned media 5 hours
# Description: Cover glass bottom 35mm tissue culture dishes were precoated with EmbryoMax 0.1% gelatin from Millipore according to manufacturer's recommendations. Cells were then plated and allowed to grow to 70-90% confluency before treatments. SW-480 cells were serum starved overnight prior to the addition of PDE10 inhibitors at the concentrations indicated. […] Briefly, Wnt3a or parental L-cells lacking Wnt3a were purchased from the ATCC and grown according to the manufacurer's recommendations. Once cells reached confluency, the media was collected and filtered before use. Conditioned media was added to SW-480 cells in order to stimulate nuclear translocation of β-catenin for 5 hours before fixation and staining. Cover glass bottom 35mm tissue culture dishes were precoated with EmbryoMax 0.1% gelatin from Millipore according to manufacturer's recommendations. Cells were then plated and allowed to grow to 70-90% confluency before treatments. Cells were fixed with 10% buffered formalin, before permeabilization with PBS containing 0.1% Trition X-100. Cells were incubated with the appropriate primary antibodies before incubation with secondary antibodies conjugated with Alexa-fluor 488 and mounted using ProLong Gold antifade reagent with DAPI (Molecular Probes-ThermoFisher Scientific). Images were acquired using a Nikon A1 Laser Scanning Confocal microscope. […]
# [28] = HT-29, 30 minutes pretreatment in ascending concentrations, then 5 μM Pf-2545920 for 1 hour
# [29] = HT-29, 10 minutes pretreatment in ascending concentrations, then 5μM Pf-2545920 for 1 hour
# [30] = cAMP substrate, read-out: cAMP IC50
# [31] = cGMP substrate, read-out: cGMP IC50
# Chain of PDE11A (Q9HCR9 whole entry, species assumed): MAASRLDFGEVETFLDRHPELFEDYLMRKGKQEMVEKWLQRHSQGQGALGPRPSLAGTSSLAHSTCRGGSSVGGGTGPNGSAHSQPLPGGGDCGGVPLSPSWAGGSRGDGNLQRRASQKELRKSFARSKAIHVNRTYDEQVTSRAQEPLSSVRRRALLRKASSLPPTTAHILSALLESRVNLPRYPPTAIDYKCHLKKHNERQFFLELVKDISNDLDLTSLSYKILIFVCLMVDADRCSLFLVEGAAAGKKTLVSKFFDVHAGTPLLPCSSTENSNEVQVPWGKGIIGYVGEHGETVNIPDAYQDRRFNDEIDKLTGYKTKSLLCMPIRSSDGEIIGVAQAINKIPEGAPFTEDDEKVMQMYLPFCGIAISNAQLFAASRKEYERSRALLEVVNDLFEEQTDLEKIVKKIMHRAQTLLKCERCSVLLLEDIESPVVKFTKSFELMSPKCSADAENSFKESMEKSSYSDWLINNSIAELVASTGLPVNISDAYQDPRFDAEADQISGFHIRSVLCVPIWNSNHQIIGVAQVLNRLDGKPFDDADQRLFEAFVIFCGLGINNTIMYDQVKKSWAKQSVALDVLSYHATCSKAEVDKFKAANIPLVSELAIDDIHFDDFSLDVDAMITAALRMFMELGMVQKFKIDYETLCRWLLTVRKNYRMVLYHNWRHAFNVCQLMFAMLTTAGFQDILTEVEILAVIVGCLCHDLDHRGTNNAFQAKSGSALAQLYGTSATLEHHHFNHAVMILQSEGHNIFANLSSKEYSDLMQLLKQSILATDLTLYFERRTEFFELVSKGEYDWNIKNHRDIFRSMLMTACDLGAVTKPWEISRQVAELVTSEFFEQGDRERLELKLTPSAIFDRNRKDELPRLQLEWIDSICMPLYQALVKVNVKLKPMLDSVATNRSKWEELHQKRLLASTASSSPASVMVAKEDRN
# Chain of PDE1A (P54750 whole entry, species assumed): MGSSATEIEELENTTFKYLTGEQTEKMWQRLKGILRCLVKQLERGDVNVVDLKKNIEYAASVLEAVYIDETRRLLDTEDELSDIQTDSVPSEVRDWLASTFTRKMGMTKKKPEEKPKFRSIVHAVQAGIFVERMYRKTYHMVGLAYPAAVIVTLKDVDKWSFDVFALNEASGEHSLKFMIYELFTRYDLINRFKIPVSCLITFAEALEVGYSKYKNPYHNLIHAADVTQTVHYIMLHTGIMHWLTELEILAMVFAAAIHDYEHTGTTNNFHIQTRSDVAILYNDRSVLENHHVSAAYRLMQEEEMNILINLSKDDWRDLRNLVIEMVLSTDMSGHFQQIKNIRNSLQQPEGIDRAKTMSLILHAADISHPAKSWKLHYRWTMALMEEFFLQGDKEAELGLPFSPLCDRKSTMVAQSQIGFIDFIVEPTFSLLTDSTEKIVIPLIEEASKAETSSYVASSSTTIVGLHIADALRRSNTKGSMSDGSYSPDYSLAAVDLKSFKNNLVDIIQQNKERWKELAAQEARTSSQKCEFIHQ
# Chain of PDE2A (O00408 whole entry, species assumed): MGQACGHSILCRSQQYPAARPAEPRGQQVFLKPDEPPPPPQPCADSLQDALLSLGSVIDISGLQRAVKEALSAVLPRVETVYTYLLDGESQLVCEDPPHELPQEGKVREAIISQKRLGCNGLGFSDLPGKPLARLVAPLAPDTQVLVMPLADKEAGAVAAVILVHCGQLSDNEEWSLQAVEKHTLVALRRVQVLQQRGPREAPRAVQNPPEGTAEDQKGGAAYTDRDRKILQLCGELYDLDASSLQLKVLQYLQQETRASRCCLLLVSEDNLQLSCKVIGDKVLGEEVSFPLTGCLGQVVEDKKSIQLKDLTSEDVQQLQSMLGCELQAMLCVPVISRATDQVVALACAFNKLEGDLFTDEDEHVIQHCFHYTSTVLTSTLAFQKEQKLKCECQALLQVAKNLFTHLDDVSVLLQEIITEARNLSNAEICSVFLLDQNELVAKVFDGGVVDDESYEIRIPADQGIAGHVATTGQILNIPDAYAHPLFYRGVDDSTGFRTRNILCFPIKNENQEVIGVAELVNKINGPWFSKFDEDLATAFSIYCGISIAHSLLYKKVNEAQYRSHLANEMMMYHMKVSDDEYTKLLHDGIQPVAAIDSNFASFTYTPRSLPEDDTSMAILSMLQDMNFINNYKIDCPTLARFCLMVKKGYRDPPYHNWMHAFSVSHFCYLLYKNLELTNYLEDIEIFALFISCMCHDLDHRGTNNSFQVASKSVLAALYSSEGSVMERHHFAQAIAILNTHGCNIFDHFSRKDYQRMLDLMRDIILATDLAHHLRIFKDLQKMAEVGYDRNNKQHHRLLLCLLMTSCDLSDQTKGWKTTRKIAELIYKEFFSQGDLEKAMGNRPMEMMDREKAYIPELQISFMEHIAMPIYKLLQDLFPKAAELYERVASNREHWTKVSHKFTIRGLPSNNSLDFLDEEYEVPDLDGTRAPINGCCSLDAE
# Chain of PDE3B (Q13370 whole entry, species assumed): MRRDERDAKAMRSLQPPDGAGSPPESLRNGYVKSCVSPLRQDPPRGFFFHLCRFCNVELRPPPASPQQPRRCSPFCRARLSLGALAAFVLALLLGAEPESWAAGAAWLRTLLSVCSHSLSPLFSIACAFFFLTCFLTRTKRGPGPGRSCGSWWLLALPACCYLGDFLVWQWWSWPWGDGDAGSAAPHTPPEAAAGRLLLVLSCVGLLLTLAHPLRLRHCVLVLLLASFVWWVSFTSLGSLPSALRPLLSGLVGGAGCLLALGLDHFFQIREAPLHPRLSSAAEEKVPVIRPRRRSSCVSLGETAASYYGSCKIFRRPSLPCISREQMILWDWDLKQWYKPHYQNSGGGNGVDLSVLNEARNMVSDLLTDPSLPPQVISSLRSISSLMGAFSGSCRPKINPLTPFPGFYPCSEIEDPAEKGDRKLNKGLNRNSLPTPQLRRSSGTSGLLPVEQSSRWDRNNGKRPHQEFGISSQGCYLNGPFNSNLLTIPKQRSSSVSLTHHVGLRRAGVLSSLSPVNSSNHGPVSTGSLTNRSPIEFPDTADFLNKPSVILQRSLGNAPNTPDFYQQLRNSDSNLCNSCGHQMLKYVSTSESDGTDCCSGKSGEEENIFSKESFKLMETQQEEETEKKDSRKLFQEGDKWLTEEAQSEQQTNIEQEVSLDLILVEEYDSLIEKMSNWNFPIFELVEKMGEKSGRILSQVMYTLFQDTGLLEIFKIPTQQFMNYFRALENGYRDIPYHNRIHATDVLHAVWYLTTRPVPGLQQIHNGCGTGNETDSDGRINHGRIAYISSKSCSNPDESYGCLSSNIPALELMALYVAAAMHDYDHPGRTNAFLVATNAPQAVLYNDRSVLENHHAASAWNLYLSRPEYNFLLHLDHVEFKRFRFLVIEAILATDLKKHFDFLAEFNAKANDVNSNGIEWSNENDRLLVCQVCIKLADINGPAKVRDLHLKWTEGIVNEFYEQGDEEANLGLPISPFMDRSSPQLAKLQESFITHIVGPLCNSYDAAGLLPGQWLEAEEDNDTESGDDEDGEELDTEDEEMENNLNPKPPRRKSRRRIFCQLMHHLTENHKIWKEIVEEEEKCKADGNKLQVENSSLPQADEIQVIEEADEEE
# Chain of PDE3A (Q14432 whole entry, species assumed): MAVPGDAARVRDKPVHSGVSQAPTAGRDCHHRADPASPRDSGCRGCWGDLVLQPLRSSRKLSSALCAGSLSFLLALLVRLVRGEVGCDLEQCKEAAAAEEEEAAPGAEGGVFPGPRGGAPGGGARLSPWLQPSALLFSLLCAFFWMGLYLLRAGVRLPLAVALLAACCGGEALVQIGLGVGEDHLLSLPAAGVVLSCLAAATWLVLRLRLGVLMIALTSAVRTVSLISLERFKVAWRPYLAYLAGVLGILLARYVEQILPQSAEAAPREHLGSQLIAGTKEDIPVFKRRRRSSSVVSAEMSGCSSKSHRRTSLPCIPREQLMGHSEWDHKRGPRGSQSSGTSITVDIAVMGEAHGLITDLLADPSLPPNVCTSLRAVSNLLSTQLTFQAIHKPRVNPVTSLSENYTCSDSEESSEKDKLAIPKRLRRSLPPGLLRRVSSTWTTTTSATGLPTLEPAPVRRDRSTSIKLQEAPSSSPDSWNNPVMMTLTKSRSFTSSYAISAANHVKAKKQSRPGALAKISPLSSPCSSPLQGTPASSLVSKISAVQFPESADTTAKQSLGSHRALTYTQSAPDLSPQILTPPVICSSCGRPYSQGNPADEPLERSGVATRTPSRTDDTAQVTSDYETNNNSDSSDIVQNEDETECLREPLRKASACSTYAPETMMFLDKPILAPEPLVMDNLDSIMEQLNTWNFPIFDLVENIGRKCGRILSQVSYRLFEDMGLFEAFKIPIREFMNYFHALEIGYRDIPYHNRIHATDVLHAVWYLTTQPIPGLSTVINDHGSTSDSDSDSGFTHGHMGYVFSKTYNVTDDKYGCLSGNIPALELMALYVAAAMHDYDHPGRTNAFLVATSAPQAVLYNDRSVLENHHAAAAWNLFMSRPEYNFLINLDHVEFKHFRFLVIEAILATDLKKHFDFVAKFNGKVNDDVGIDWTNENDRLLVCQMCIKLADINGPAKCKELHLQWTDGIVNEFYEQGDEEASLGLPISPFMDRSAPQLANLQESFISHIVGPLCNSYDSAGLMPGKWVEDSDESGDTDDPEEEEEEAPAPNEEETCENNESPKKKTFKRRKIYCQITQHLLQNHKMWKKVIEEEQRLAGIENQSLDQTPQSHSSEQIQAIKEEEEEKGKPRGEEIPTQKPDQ
structure (smiles),measurement,setting,value
COC(=O)[C@@]1(OC)C[C@H]2O[C@]1(C)n1c3ccccc3c3c4c(c5c6ccccc6n2c5c31)C(=O)N(C)C4 [KT 5823],PKA activity (VASP phosphorylation at serine 157),[1]; [28],minimally affecting the activity of PKA
same,PKG activation (VASP phosphorylation at serine 239),[1]; [28],caused a decrease in PKG activation
same,apoptosis by Western blot for cleaved-PARP,[2],reduced apoptosis
O=S(=O)(NCCNC/C=C/c1ccc(Br)cc1)c1cccc2cnccc12 [H89],effect on sensitivity of cells to growth inhibitory activity of Pf-2545920,"[3]; HT-29, 0.1μM H89 for 10 minutes before Pf-2545920 for 72 hours",had no effect on the sensitivity
same,PKA activation (VASP phosphorylation at serine 157),[1]; [29],blocks the activation of PKA in a concentration-dependent manner
same,PKG activation (VASP phosphorylation at serine 239),[1]; [29],"blocking the activation of PKG, albeit at higher concentrations"
COc1ccc(C2CNC(=O)C2)cc1OC1CCCC1 (stereo not drawn) [rolipram],colon tumor cell growth,[4],did not affect colon tumor cell growth
"Cn1cc(-c2ccncc2)c(-c2ccc(OCc3ccc4ccccc4n3)cc2)n1 [Pf-2545920, 2-[4-(1-Methyl-4-pyridin-4-yl-1H-pyrazol-3-yl)-phenoxymethyl]-quinoline]",cAMP IC50,[5]; cAMP substrate,Inactive @ 10 μM
same,cGMP IC50,[5]; cGMP substrate,Inactive @ 10 μM
same,IC50,[6]; [30],36.6 µM
same,IC50,[6]; [31],> 50 µM
same,IC50,[7]; [30],> 50 µM
same,IC50,[7]; [31],> 50 µM
same,cAMP IC50,[8]; cAMP substrate,Inactive @ 10 μM
same,cGMP IC50,[8]; cGMP substrate,Inactive @ 10 μM
same,IC50,[9],2.36 µM
same,IC50,[10],8.6 µM
same,cGMP IC50,[11],Inactive @ 10 μM
same,cAMP IC50,[12]; cAMP substrate,Inactive @ 10 μM
same,cGMP IC50,[12]; cGMP substrate,Inactive @ 10 μM
same,IC50,[13],19.3 µM
same,IC50,[14],18.5 µM
same,IC50,[15],18.9 µM
same,IC50,[16],14.4 µM
same,IC50,[17],6.9 µM
same,IC50,[18],19.6 µM
same,IC50,[19],6.9 to 19.6 µM
same,IC50,[20],1.2 µM
same,IC50,[21],13.4 µM
same,IC50,"[3]; HT-29, pretreated with 0.1μM H89 for 10 minutes, 72 hours",4.8 µM
same,IC50,"[3]; HT-29, without H89, 72 hours",4.6 µM
same,cell death (fluorescence intensity),[22],induces cell death in a concentration-dependent manner
same,cells staining positive for Annexin V,"[23]; HT-29, 10 μM",25.9%
same,cells staining positive for both Annexin V and PI,"[23]; HT-29, 10 μM",31.9%
same,cells staining positive for Annexin V,"[23]; HT-29, 25 μM",38.2%
same,cells staining positive for both Annexin V and PI,"[23]; HT-29, 25 μM",31.4%
same,phosphorylated VASP (serine 239 and serine 157),"[24]; HCT-116, 5 μM, time course up to 8 hours, time-dependent",increased the level of phosphorylated VASP
same,PKG and PKA activation (phosphorylation of VASP and CREB),"[24]; HCT-116, dose response, 1 hour",activated both PKG and PKA
same,intracellular cGMP levels,[25],increased
same,intracellular cAMP levels,[26],increased
same,β-catenin in the nucleus,"[27]; SW-480, 10 μM",reduced the amount of β-catenin in the nucleus
same,total protein levels of β-catenin,"[27]; SW-480, 25 μM",total protein levels of β-catenin are decreased

# Reference: publication PMC4868691, “β-catenin nuclear translocation in colorectal cancer cells is suppressed by PDE10A inhibition, cGMP elevation, and activation of PKG” (Oncotarget, 2015)
